Reference: patent US20080293774A1, “Treatment of the Symptoms of Bladder Irritation” (UROGENE, priority 2005, published 2008)

What was measured:
[1] = test system: rhythmic reflex contractions of the bladder; assay: complete bladder-outlet obstruction (isovolumetric) model of overactive bladder in the rat; type: in vivo, female Wistar rats; settings: i.v.; for maximum intravesical pressure: all doses tested (HP183 0.3, 1, 3 mg/kg; HP184 1, 3, 10 mg/kg; HP749 1.6, 3.5, 10.5 mg/kg)
From the text: The compounds of Table 1 have been evaluated in a conventional animal model of overactive bladder: the complete bladder-outlet obstruction model in the rat, referred to as “isovolumetric” model (K. Sugaya, Y. Ogawa, O, Nishizawa, W C De Groat, Decrease in intravesical saline volume during isovolumetric cystometry in the rat, Neurourol. Urodyn, 1997, 16:125-132). In this model, rhythmic reflex contractions of the bladder are induced in female Wistar rats in which the urethra has been ligatured.
The rats are anaesthetized and implanted with a jugular catheter for the intravenous administration of the compounds. A transurethral catheter is introduced into the bladder, through the bladder dome, so as to allow the infusion of a saline solution and measurement of the intravesical pressure. The urethra is ligatured in order to close off the bladder.
The bladder is infused (50 μl/min) via the transurethral catheter with a saline solution until uninhibited rhythmic contractions appear. The infusion is then stopped and the intravesical pressure is measured for a period of 60 min preceding the injection of the study compounds. The compounds to be studied are then injected via the jugular catheter, and the intravesical pressure is recorded for a period of 60 min. The intravenous administration of the compounds during this test limits the metabolization of HP749 and of HP184 to HP748 and HP183, respectively. The animals are sacrificed at the end of the experiment by means of an overdose of pentobarbital. A scheme of the experiment is given below.
The data from the experiment are analysed with the ELPHY software (a free version of which is accessible at the following address: http://www.unic.cnrs-gif.fr/software/software.htm). The parameters analysed are as follows: • Maximum intravesical pressure (MP, expressed in mmHg) • Threshold pressure (ThP, expressed in mmHg) compared with the carrier (FIG. 2B).

[2] = test system: bladder contractions; settings: rats suffering from bladder irritation; cited from earlier work
[3] = human; cited from earlier work
[4] = all doses tested (HP183 0.3, 1, 3 mg/kg; HP184 1, 3, 10 mg/kg), 60 min recording, compared with the carrier
[5] = 60 min recording, compared with the carrier

| Structure (SMILES) | frequency of rhythmic isovolumetric contractions [1, 4] | maximum intravesical pressure [1, 5] | frequency of bladder contractions related to bladder irritation [2] | frequency of bladder contractions ([1]; from the first dose of 0.3 mg/kg, dose-dependent) | metabolite formed by biotransformation [3] | frequency of rhythmic isovolumetric contractions ([1]; highest dose (10.5 mg/kg)) | frequency of rhythmic isovolumetric contractions ([1]; lowest dose (HP749 1.6 mg/kg)) |
| --- | --- | --- | --- | --- | --- | --- | --- |
| Cc1cn(Nc2ccncc2F)c2ccccc12 [HP183, N-(3-fluoro-4-pyridinyl)-3-methyl-1H-indol-1-amine] | no statistically significant effect | no statistically significant effect | – | – | – | – | – |
| CCCN(c1ccncc1F)n1cc(C)c2ccccc21 [HP184, N-(3-fluoro-4-pyridinyl)-N-propyl-3-methyl-1H-indol-1-amine] | no statistically significant effect | no statistically significant effect | slightly decreasing | – | – | – | – |
| c1ccc2c(c1)ccn2Nc1ccncc1 [HP748, N-(4-pyridinyl)-1H-indol-1-amine] | – | – | – | considerably and statistically significantly decreased | – | – | – |
| CCCN(c1ccncc1)n1ccc2ccccc21 [HP749, N-propyl-N-(4-pyridinyl)-1H-indol-1-amine] | – | did not demonstrate any effect | – | – | metabolized in human to compound (I) | increasing | decreasing |
